Experimental data published in patent US9504755B2, “Multi-arm polymeric alkanoate conjugates” (Nektar Therapeutics, priority 2008, dated 2016).
Marks after values point to notes of the source that are not given here.

Key:
[1] = test system: LS174T tumors; test: Anti-tumor activity in LS174T colorectal mouse xenograft model; format: in vivo
Protocol: (§1) H460, LS174T and LoVo tumors were established in female athymic nude mice. Groups of 10 mice received a total of three single doses of 4-ARM-PEG20K-BA-DOC or docetaxel administered every 7 days (q7d×3) at several doses up to a maximum tolerated dose (MTD). Control groups received no treatment after tumor implant. Animals were weighed daily for the first five days and twice weekly thereafter. Tumor volumes were measured twice weekly after the first drug injection.
(§2) Anti-tumor activity was measured as changes in tumor volume, time to reach endpoint, and complete or partial tumor regression.
(§3) Treatment outcome was evaluated by Tumor Growth Delay (TGD), which is defined as the increase in median time to endpoint in a treatment group compared to the control group. Here it is expressed as % TGD, as a percentage to the median time to endpoint of the control group.
(§4) A tumor whose volume was reduced to 50% or less for three consecutive measurements compared to its volume on Day 1 was considered to be in partial regression. Complete regression was defined as volume […] 13.5 mm^3 for three consecutive measurements.
(§5) Acceptable toxicity was defined as a group mean body weight (BW) loss of less than 20% during the study and not more than one treatment-related death among ten treated animals.

[2] = Pharmacokinetics after IV infusion in Sprague-Dawley rats; format: in vivo, rat; conditions: Sprague-Dawley, rat, plasma, male rats, single IV dose 5 mg/kg
Protocol: The objective of this study was to assess the pharmacokinetics and excretion of docetaxel and 4-ARM-PEG20K-BA-docetaxel after intravenous infusion to rats.
Pharmacokinetics of 4-ARM-PEG20K-BA-docetaxel and docetaxel were evaluated in male rats (15 rats/dose level) dosed with 5, 10, and 15 mg/kg (30, 60, 90 mg/m^2) 4-ARM-PEG20K-BA-docetaxel or 5 mg/kg (30 mg/m^2) docetaxel. 4-ARM-PEG20K-BA-docetaxel and docetaxel were administered via a femoral vein catheter as 30-min intravenous infusions at 4 mL/kg. Blood samples (n=15 timepoints with n=5 samples/dose level/timepoint) were obtained by jugular venipuncture between pre-dose and 144 hours post-dose.

[3] = Population pharmacokinetic modeling of terminal disposition rate constant, dogs; format: in vivo; conditions: dog, in vivo
Source text: (§6) To further evaluate the sustained plasma docetaxel terminal half-life, a population pharmacokinetic approach was employed.
(§7) While determining the pharmacokinetics of docetaxel after administration of docetaxel or 4-ARM-PEG20K-BA-docetaxel, it was observed that reliable values for the terminal disposition rate constant λz could not be obtained for the majority of animals secondary to fluctuation of plasma docetaxel concentrations between adjacent sampling times and/or the occurrence of incomplete concentration-time profiles due to concentrations being near or at the lower limit of quantification (1 ng/mL). In addition, in Example 14, rats were sampled in groups of 15 using alternating, overlapping sparse sampling schemes across groups to encompass the total duration of sampling. All of these factors contributed to the occurrence of sparse data within a given animal's terminal concentration-time profile.
(§8) To further investigate and compare docetaxel terminal disposition patterns between docetaxel and 4-ARM-PEG20K-BA-docetaxel, population pharmacokinetic methods were applied to data from rats (Example 14) and dogs (Example 15 and in one additional study). This allowed estimation of population λz values and corresponding half-life values for each treatment group in the presence of incomplete data within individual animals. Specifically, data from all animals within a treatment group and all treatment groups were fit with a nonlinear mixed effect pharmacokinetic model using the program Monolix. Plasma docetaxel concentrations following docetaxel or 4-ARM-PEG20K-BA-docetaxel administration, and plasma 4-ARM-PEG20K-BA-docetaxel concentrations following 4-ARM-PEG20K-BA-docetaxel administration were fit with a model specifying zero-order input of the dose over a defined infusion period and biexponential disposition (Monolix PK Model 26). Docetaxel concentration-time data after 4-ARM-PEG20K-BA-docetaxel were fit with a model having first order input, to reflect metabolism of 4-ARM-PEG20K-BA-docetaxel to the active docetaxel metabolite, and biexponential disposition (Monolix PK Model 31). The parameter of interest for this investigation was the population terminal disposition rate constant, λz to supplement the results described above.
Dogs in the additional study received 7 mg/kg doses of 4-ARM-PEG20K-BA-docetaxel on Days 1 and 22 with serial blood sampling after each dose for determination of plasma 4-ARM-PEG20K-BA-docetaxel and docetaxel concentrations.

[4] = test system: LoVo tumors; test: Anti-tumor activity in LoVo colorectal mouse xenograft model; format: in vivo
Protocol: as §1, §2, §3, §4, §5

[5] = Population pharmacokinetic modeling of terminal disposition rate constant, rats; format: in vivo; conditions: rat, in vivo
Source text: as §6, §7, §8

[6] = 12.7 mg/kg (38.1 mg/m^2), q7d×3
[7] = 16.9 mg/kg (50.7 mg/m^2), q7d×3
[8] = 22.5 mg/kg (67.5 mg/m^2), q7d×3
[9] = 30 mg/kg (90 mg/m^2), q7d×3 (MTD of docetaxel)
[10] = 30 mg/kg (90 mg/m^2), q7d×3 (MTD of docetaxel), listed as docetaxel

Q: Which results are given for `CC(=O)O[C@@]12CO[C@@H]1C[C@H](O)[C@@]1(C)C(=O)[C@H](O)C3=C(C)[C@@H](OC(=O)[C@H](O)[C@@H](NC(=O)OC(C)(C)C)c4ccccc4)C[C@@](O)([C@@H](OC(=O)c4ccccc4)[C@H]21)C3(C)C` [Docetaxel, reference compound]?
A: BW Loss (%) [1, 6]: 8.8%; Day of BW Nadir [1, 6]: 23; No. Surviving/No. Treated Mice [1, 6]: 10/10; PR (partial regressions) [1, 6]: 0; TGD (%) [1, 6]: 69* %; BW Loss (%) [1, 7]: 11.2%; Day of BW Nadir [1, 7]: 23; No. Surviving/No. Treated Mice [1, 7]: 10/10; PR (partial regressions) [1, 7]: 0; TGD (%) [1, 7]: 96* %; BW Loss (%) [1, 8]: 6.7%; Day of BW Nadir [1, 8]: 23; No. Surviving/No. Treated Mice [1, 8]: 10/10; PR (partial regressions) [1, 8]: 0; TGD (%) [1, 8]: 135* %; Day of BW Nadir ([1]; 30 mg/kg (90 mg/m^2), q7d×3): 23; No. Surviving/No. Treated Mice ([1]; 30 mg/kg (90 mg/m^2), q7d×3): 10/10; BW Loss (%) [1, 9]: 16.6%; PR (partial regressions) [1, 9]: 0; TGD (%) [1, 9]: 166* %; PR (partial regressions) [1, 10]: no partial regressions; TGD (%) [1, 10]: 166%; AUC(0-t) ([2]; read-out: AUClast, analyte docetaxel): 1420 ng·h/mL; Cmax ([2]; read-out: Cmax, analyte docetaxel): 682 ng/mL; Tmax ([2]; read-out: Tmax, analyte docetaxel): 0.5 h; t½λz, plasma docetaxel [3]: 25 h; BW Loss (%) [4, 6]: 5.0%; Day of BW Nadir [4, 6]: 24; No. Surviving/No. Treated Mice [4, 6]: 10/10; PR (partial regressions) [4, 6]: 0; TGD (%) [4, 6]: 7%; BW Loss (%) [4, 7]: 12.8%; Day of BW Nadir [4, 7]: 21; No. Surviving/No. Treated Mice [4, 7]: 10/10; PR (partial regressions) [4, 7]: 0; TGD (%) [4, 7]: 70** %; BW Loss (%) [4, 8]: 14.6%; Day of BW Nadir [4, 8]: 24; No. Surviving/No. Treated Mice [4, 8]: 10/10; PR (partial regressions) [4, 8]: 0; TGD (%) [4, 8]: 32* %; BW Loss (%) ([4]; 30 mg/kg (90 mg/m^2), q7d×3): 13.3%; Day of BW Nadir ([4]; 30 mg/kg (90 mg/m^2), q7d×3): 21; No. Surviving/No. Treated Mice ([4]; 30 mg/kg (90 mg/m^2), q7d×3): 10/10; PR (partial regressions) ([4]; 30 mg/kg (90 mg/m^2), q7d×3): 0; TGD (%) ([4]; 30 mg/kg (90 mg/m^2), q7d×3 (MTD for both agents)): 64** %; TGD (%) ([4]; 30 mg/kg (90 mg/m^2), q7d×3 (MTD for both agents), listed as docetaxel): 64%; t½λz, plasma docetaxel [5]: 40 h
